The text below walks through data of patent publication US9815846B2 (Merck Sharp & Dohme Corp., priority 2014, dated 2017).

A word on the pIC50: it is the IC50 on a negative log10 scale, so that one unit is a factor of ten. A higher pIC50 goes with a low IC50.

pIC50: −log10 of the molar value.

The target in the assay is human TrkA receptor (Homo sapiens (Human), UniProt P04629). Description: DiscoverX PathHunter TrkA functional assay (NGF-stimulated U2OS cells). Particulars: U2OS cells expressing human TrkA-PK, Shc1-EA and p75NTR; compound 1 h, then NGF at ~80% of maximal response for 3 h; luminescence. It is filed as cell-based.
human TrkA receptor, sequence (P04629 33-796): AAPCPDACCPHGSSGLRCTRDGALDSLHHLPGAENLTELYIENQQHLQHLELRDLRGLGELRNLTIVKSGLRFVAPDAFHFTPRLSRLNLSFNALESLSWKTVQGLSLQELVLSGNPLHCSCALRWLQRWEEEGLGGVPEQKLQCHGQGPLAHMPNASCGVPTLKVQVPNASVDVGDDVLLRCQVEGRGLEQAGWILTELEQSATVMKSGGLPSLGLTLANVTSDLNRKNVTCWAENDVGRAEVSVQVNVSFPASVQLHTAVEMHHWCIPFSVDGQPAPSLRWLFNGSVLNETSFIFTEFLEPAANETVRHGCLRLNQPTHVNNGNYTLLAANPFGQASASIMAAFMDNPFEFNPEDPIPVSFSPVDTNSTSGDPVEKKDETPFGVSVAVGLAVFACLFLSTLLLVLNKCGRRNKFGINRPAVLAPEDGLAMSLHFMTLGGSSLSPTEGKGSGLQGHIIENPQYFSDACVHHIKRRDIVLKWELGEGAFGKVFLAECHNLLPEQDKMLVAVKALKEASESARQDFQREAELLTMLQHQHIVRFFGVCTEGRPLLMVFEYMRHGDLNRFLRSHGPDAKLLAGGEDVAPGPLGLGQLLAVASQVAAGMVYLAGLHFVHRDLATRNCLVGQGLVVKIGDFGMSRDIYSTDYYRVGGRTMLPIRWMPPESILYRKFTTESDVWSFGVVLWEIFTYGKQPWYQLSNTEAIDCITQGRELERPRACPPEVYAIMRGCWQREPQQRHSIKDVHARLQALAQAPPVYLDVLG
With `Cn1ccc(-c2cc(C(=O)Nc3cnc(CS(C)(=O)=O)nc3-c3ccccc3)c(F)cc2C(F)(F)F)n1` [Example 199, 2-Fluoro-5-(1-methyl-1H-pyrazol-3-yl)-N-(2-((methylsulfonyl)methyl)-4-phenylpyrimidin-5-yl)-4-(trifluoromethyl)benzamide], the pIC50 is 8.40.

`CNS(=O)(=O)Cc1ccc(NC(=O)c2cc(-c3ccn(C)n3)c(C(F)(F)F)cc2F)c(-c2ccccc2)n1` [Example 200, 2-fluoro-5-(1-methyl-1H-pyrazol-3-yl)-N-(6-((N-methylsulfamoyl)methyl)-2-phenylpyridin-3-yl)-4-(trifluoromethyl)benzamide] showed a negative logarithm of the IC50 (pIC50) of 8.36.

`Cn1ccc(-c2cc(C(=O)Nc3cnc(CC4CC(=O)NC4=O)nc3-c3ccccc3)c(F)cc2C(F)(F)F)n1` (stereo not drawn) [Example 201, N-(2-((2,5-Dioxopyrrolidin-3-yl)methyl)-4-phenylpyrimidin-5-yl)-2-fluoro-5-(1-methyl-1H-pyrazol-3-yl)-4-(trifluoromethyl)benzamide] had a negative-log IC50 (pIC50) of 8.55.

`Cn1ccc(-c2cc(C(=O)Nc3cc(CC(N)=O)cnc3-c3ccccc3)c(F)cc2C(F)(F)F)n1` [Example 202, N-(5-(2-Amino-2-oxoethyl)-2-phenylpyridin-3-yl)-2-fluoro-5-(1-methyl-1H-pyrazol-3-yl)-4-(trifluoromethyl)benzamide] gave a negative logarithm of the IC50 (pIC50) of 8.43.

For `Cn1ccc(-c2cc(C(=O)Nc3cc(CC(N)=O)cnc3-c3ccccc3)ccc2C(F)(F)F)n1` [Example 203, N-(5-(2-amino-2-oxoethyl)-2-phenylpyridin-3-yl)-3-(1-methyl-1H-pyrazol-3-yl)-4-(trifluoromethyl)benzamide], the pIC50 was 8.22.

With `O=C(Nc1cc(Cc2cnco2)cnc1-c1ccccc1)c1cc(-c2ncccn2)c(C(F)(F)F)cc1F` [Example 204, 2-fluoro-N-(5-(oxazol-5-ylmethyl)-2-phenylpyridin-3-yl)-5-(pyrimidin-2-yl)-4-(trifluoromethyl)benzamide], the pIC50 is 8.08.

`Cn1ccc(-c2cc(C(=O)Nc3nc(CC(N)=O)ccc3-c3ccccc3)c(F)cc2C(F)(F)F)n1` [Example 205, N-(6-(2-Amino-2-oxoethyl)-3-phenylpyridin-2-yl)-2-fluoro-5-(1-methyl-1H-pyrazol-3-yl)-4-(trifluoromethyl)benzamide] gave a negative-log IC50 (pIC50) of 8.08.

As for `Cn1ccc(-c2cc(C(=O)Nc3ccc(C4CN(C(=O)CO)C4)nc3-c3ccccc3)c(F)cc2C(F)(F)F)n1` [Example 206, 2-Fluoro-N-(6-(1-(2-hydroxyacetyl)azetidin-3-yl)-2-phenylpyridin-3-yl)-5-(1-methyl-1H-pyrazol-3-yl)-4-(trifluoromethyl)benzamide], the pIC50 was 8.89.

Take `Cn1ccc(-c2cc(C(=O)Nc3ccc(C4CN(C(=O)CN)C4)nc3-c3ccccc3)c(F)cc2C(F)(F)F)n1` [Example 207, 2-fluoro-N-(6-(1-glycylazetidin-3-yl)-2-phenylpyridin-3-yl)-5-(1-methyl-1H-pyrazol-3-yl)-4-(trifluoromethyl)benzamide]: the negative-log IC50 (pIC50) was 8.96.

As to `CC(=O)N1CC(c2ccc(NC(=O)c3cc(-c4ccn(C)n4)c(C(F)(F)F)cc3F)c(-c3ccccc3)n2)C1` [Example 208, N-(6-(1-acetylazetidin-3-yl)-2-phenylpyridin-3-yl)-2-fluoro-5-(1-methyl-1H-pyrazol-3-yl)-4-(trifluoromethyl)benzamide], the negative-log IC50 (pIC50) was 8.52.

Consider `Cn1ccc(-c2cc(C(=O)Nc3cnc(NC(=O)CO)nc3-c3ccccc3)c(F)cc2C(F)(F)F)n1` [Example 209, 2-Fluoro-N-(2-(2-hydroxyacetamido)-4-phenylpyrimidin-5-yl)-5-(1-methyl-1H-pyrazol-3-yl)-4-(trifluoromethyl)benzamide], for which the negative-log IC50 (pIC50) is 8.70.

As for `Cn1ccc(-c2cc(C(=O)Nc3cnc(NCCO)nc3-c3ccccc3)ccc2C(F)(F)F)n1` [Example 210, N-(2-((2-hydroxyethyl)amino)-4-phenylpyrimidin-5-yl)-3-(1-methyl-1H-pyrazol-3-yl)-4-(trifluoromethyl)benzamide], the pIC50 is 8.60.

As to `Cn1ccc(-c2cc(C(=O)Nc3cnc(N4CCNC4=O)nc3-c3ccccc3)c(F)cc2C(F)(F)F)n1` [Example 211, 2-fluoro-5-(1-methyl-1H-pyrazol-3-yl)-N-(2-(2-oxoimidazolidin-1-yl)-4-phenylpyrimidin-5-yl)-4-(trifluoromethyl)benzamide], the negative-log IC50 (pIC50) is 8.59. The pIC50 values of the last two compounds are within 0.2 log units of each other.

`Cn1ccc(-c2cc(C(=O)Nc3cnc(N)nc3-c3ccccc3)c(F)cc2C(F)(F)F)n1` [Example 212, N-(2-amino-4-phenylpyrimidin-5-yl)-2-fluoro-5-(1-methyl-1H-pyrazol-3-yl)-4-(trifluoromethyl)benzamide] had a negative-log IC50 (pIC50) of 8.55.

`Cn1ccc(-c2cc(C(=O)Nc3cnc(NCC(N)=O)nc3-c3ccccc3)c(F)cc2C(F)(F)F)n1` [Example 213, N-(2-((2-amino-2-oxoethyl)amino)-4-phenylpyrimidin-5-yl)-2-fluoro-5-(1-methyl-1H-pyrazol-3-yl)-4-(trifluoromethyl)benzamide] showed a pIC50 of 8.85.

For `Cn1ccc(-c2cc(C(=O)Nc3ncc(CN4CCOC4=O)nc3-c3ccccc3)c(F)cc2C(F)(F)F)n1` [Example 214, 2-Fluoro-5-(1-methyl-1H-pyrazol-3-yl)-N-(5-((2-oxooxazolidin-3-yl)methyl)-3-phenylpyrazin-2-yl)-4-(trifluoromethyl)benzamide], the negative logarithm of the IC50 (pIC50) is 8.34.

In turn, `Cn1ccc(-c2cc(C(=O)Nc3ccc(C4CNC(=O)N4)nc3-c3ccccc3)c(F)cc2C(F)(F)F)n1` (stereo not drawn) [Example 215, 2-Fluoro-5-(1-methyl-1H-pyrazol-3-yl)-N-(6-(2-oxoimidazolidin-4-yl)-2-phenylpyridin-3-yl)-4-(trifluoromethyl)benzamide] had a pIC50 of 9.44.

Consider `Cn1ccc(-c2cc(C(=O)Nc3cnc(OCC(N)=O)nc3-c3ccccc3)c(F)cc2C(F)(F)F)n1` [Example 216, N-(2-(2-Amino-2-oxoethoxy)-4-phenylpyrimidin-5-yl)-2-fluoro-5-(1-methyl-1H-pyrazol-3-yl)-4-(trifluoromethyl)benzamide], for which the pIC50 is 8.74.

Turning to `Cn1ccc(-c2cc(C(=O)Nc3cnc(CN4CCCC4=O)nc3-c3ccccc3)c(F)cc2C(F)(F)F)n1` [Example 219, 2-fluoro-5-(1-methyl-1H-pyrazol-3-yl)-N-(2-((2-oxopyrrolidin-1-yl)methyl)-4-phenylpyrimidin-5-yl)-4-(trifluoromethyl)benzamide], the negative logarithm of the IC50 (pIC50) is 9.49.

`Cn1ccc(-c2cc(C(=O)Nc3cnc(CN4CCCCC4=O)nc3-c3ccccc3)c(F)cc2C(F)(F)F)n1` [Example 220, 2-fluoro-5-(1-methyl-1H-pyrazol-3-yl)-N-(2-((2-oxopiperidin-1-yl)methyl)-4-phenylpyrimidin-5-yl)-4-(trifluoromethyl)benzamide] gave a pIC50 of 9.00.

Regarding `Cn1ccc(-c2cc(C(=O)Nc3cnc(CN4CCCCCC4=O)nc3-c3ccccc3)c(F)cc2C(F)(F)F)n1` [Example 221, 2-fluoro-5-(1-methyl-1H-pyrazol-3-yl)-N-(2-((2-oxoazepan-1-yl)methyl)-4-phenylpyrimidin-5-yl)-4-(trifluoromethyl)benzamide], the pIC50 was 8.72.
